Data from publication PMC2364081, “Antagonists of retinoic acid receptors (RARs) are potent growth inhibitors of prostate carcinoma cells” (British Journal of Cancer, 2001).

Assays:
HL60 cells = assay: ATRA-induced differentiation of HL60 cells to neutrophils (nitroblue tetrazolium reduction); format: cell-based, human; conditions: antagonist at 100 nM added with 100 nM ATRA
Source text: (§1) Prostate cancer is one of the most common cancers in European and American males and has a high mortality rate (Landis et al, 1998; Rosenthal, 1998). Early disease is managed conservatively in Europe although in selected patients surgery is curative. In advanced disease, androgen ablation can produce symptomatic improvement, but the tumour often re-emerges in an androgen- independent and incurable form. One proposed treatment for androgen-independent prostate carcinoma is differentiation ther- apy, in which agents such as all-trans-retinoic acid (ATRA), 9-cis- retinoic acid and 1, 25-dihydroxyvitamin D3 (D3 ) are used to induce growth arrest, differentiation and sometimes apoptosis of the tumour cells (Liang et al, 1999; de Vos et al, 1997; Skowronski et al, 1994; Hedlund et al, 1997). ATRA and synthetic analogues exert their biological effects by binding to two families of retinoid receptors, […]. These are ligand-dependent transcription factors of the steroid/thyroid hormone nuclear receptor superfamily (Chambon 1994; Boehm et al, 1995). Activated RARs bind to retinoic acid-responsive elements (RAREs) in the promoters of genes and thus regulate gene expression. They also antagonize the activity of the tran- scription factor AP1 and thereby down-regulate the expression of some AP1-activated genes (Nagpal et al, 1995). […]

PC3 ITS+ cells = assay: Plate colony formation assay, serum-free (ITS+)-grown PC3; format: cell-based, human; conditions: 14 days
Source text: (§2) Prostate cancer is one of the most common cancers in European and American males and has a high mortality rate (Landis et al, 1998; Rosenthal, 1998). Early disease is managed conservatively in Europe although in selected patients surgery is curative. In advanced disease, androgen ablation can produce symptomatic improvement, but the tumour often re-emerges in an androgen- independent and incurable form. One proposed treatment for androgen-independent prostate carcinoma is differentiation ther- apy, in which agents such as all-trans-retinoic acid (ATRA), 9-cis- retinoic acid and 1, 25-dihydroxyvitamin D3 (D3 ) are used to induce growth arrest, differentiation and sometimes apoptosis of the tumour cells (Liang et al, 1999; de Vos et al, 1997; Skowronski et al, 1994; Hedlund et al, 1997). ATRA and synthetic analogues exert their biological effects by binding to two families of retinoid receptors, the RARs (RAR, RAR and RAR) and the RXRs (RXR, RXR and RXR). These are ligand-dependent transcription factors of the steroid/thyroid hormone nuclear receptor superfamily (Chambon 1994; Boehm et al, 1995). Activated RARs bind to retinoic acid-responsive elements (RAREs) in the promoters of genes and thus regulate gene expression. They also antagonize the activity of the tran- scription factor AP1 and thereby down-regulate the expression of some AP1-activated genes (Nagpal et al, 1995). One approach to unravelling the contributions of RAR sub-types to these actions has been the development of synthetic retinoids with selective activities at individual RARs and RXRs. For example, the diaryl- acetylenic retinoids allow separation of transactivation and AP1 antagonism functions at RAR (Nagpal et al, 1995). Recently, compounds that are selective for particular RAR sub-types have been synthesized: these include both agonists and antagonists (Chandraratna, 1995; Teng et al, 1999; Johnson et al, 1999). The functional selectivity of these compounds may open the way to achieving differentiation or apoptosis of tumour cells with minimal systemic side effects (Chandraratna, 1995). […]

[1] = tested on: LNCaP, PC3 and DU145 cells; assay: Plate colony formation assay, stated over the three serum-free grown lines; format: cell-based, human
Source text: (§3) Prostate cancer is one of the most common cancers in European and American males and has a high mortality rate (Landis et al, 1998; Rosenthal, 1998). Early disease is managed conservatively in Europe although in selected patients surgery is curative. In advanced disease, androgen ablation can produce symptomatic improvement, but the tumour often re-emerges in an androgen- independent and incurable form. One proposed treatment for androgen-independent prostate carcinoma is differentiation ther- apy, in which agents such as all-trans-retinoic acid (ATRA), 9-cis- retinoic acid and 1, 25-dihydroxyvitamin D3 (D3 ) are used to induce growth arrest, differentiation and sometimes apoptosis of the tumour cells (Liang et al, 1999; de Vos et al, 1997; Skowronski et al, 1994; Hedlund et al, 1997). ATRA and synthetic analogues exert their biological effects by binding to two families of retinoid receptors, […]. These are ligand-dependent transcription factors of the steroid/thyroid hormone nuclear receptor superfamily (Chambon 1994; Boehm et al, 1995). Activated RARs bind to retinoic acid-responsive elements (RAREs) in the promoters of genes and thus regulate gene expression. They also antagonize the activity of the tran- scription factor AP1 and thereby down-regulate the expression of some AP1-activated genes (Nagpal et al, 1995). One approach to unravelling the contributions of RAR sub-types to these actions has been the development of synthetic retinoids with selective activities at individual RARs and RXRs. For example, the diaryl- acetylenic retinoids allow separation of transactivation and AP1 antagonism functions at RAR (Nagpal et al, 1995). Recently, compounds that are selective for particular RAR sub-types have been synthesized: these include both agonists and antagonists (Chandraratna, 1995; Teng et al, 1999; Johnson et al, 1999). The functional selectivity of these compounds may open the way to achieving differentiation or apoptosis of tumour cells with minimal systemic side effects (Chandraratna, 1995). Cell lines that are commonly used in the evaluation of investiga- tional agents for prostate cancer include LNCaP, DU-145 and PC- 3. […] These lines are relatively insensitive to growth inhibition and induction of apoptosis by ATRA and by synthetic agonists. […] Fenretinide (4HPR) induces apoptosis of LNCaP and of PC-3 cells at 1-5 M and 25 µM, respectively (Pienta et al, 1993; Heish and Wu, 1997). Pfahl and colleagues examined the growth inhibitory effects of a panel of receptor-selective retinoids against DU145 and PC-3 cells and achieved complete growth inhibition and induction of apoptosis between 1 M and 10 M (Lu et al, 1999). […] Antagonists of retinoic acid receptors (RARs) are potent growth inhibitors of prostate carcinoma cells LA Hammond1 , CH Van Krinks2 , J Durham2 , SE Tomkins2 , RD Burnett3 , EL Jones1 , RAS Chandraratna3 and G Brown2 Divisions of 1 Cancer Studies and of 2 Immunity and Infection, University of Birmingham Medical School, Edgbaston, Birmingham B15 2TT, UK and 3 Retinoid Research, Allergan Inc., Irvine, California, USA Summary Novel synthetic antagonists of retinoic acid receptors (RARs) have been developed. To avoid interference by serum retinoids when testing these compounds, we established serum-free grown sub-lines (>3 years) of the prostate carcinoma lines LNCaP, PC3 and DU145. […] A component(s) of serum and of LNCaP-conditioned medium diminishes the activity of antagonists: this factor is not the most likely candidates IGF-1 and EGF. In vitro studies of RAR antagonists together with data from RAR-null mice lead to the hypothesis that RAR-regulated gene transcription is necessary for the survival and maintenance of prostate epithelium. […]

[2] = tested on: primary prostate carcinoma cells; assay: Growth of primary prostate carcinoma cells (flask cultures, passage 2); format: cell-based, human; conditions: 10 and 100 nM, two patients, days 3 and 6
Source text: as §1

DU145 ITS+ cells = assay: Plate colony formation assay, serum-free (ITS+)-grown DU145; format: cell-based, human; conditions: 14 days
Source text: as §2

RARβ = target: T1, RARβ (Homo sapiens, UniProt P10826); assay: Binding to baculovirus-expressed RARβ; set-up: made in house; conditions: baculovirus-expressed receptor
T1 sequence (P10826 1-455): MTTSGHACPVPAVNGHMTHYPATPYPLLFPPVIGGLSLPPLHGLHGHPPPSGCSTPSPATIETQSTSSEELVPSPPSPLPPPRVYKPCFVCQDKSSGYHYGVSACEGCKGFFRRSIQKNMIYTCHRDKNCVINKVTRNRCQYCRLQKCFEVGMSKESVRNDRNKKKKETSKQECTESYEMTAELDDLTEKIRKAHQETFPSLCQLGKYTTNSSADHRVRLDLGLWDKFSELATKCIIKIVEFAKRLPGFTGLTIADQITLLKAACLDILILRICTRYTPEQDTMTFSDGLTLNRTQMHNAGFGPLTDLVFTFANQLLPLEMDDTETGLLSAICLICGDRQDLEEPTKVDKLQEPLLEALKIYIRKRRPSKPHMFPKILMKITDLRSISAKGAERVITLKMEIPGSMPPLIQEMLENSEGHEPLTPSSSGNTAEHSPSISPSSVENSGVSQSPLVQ
Source text: as §3

LNCaP ITS+ cells = assay: Plate colony formation (clonal proliferation) assay, serum-free (ITS+)-grown LNCaP; format: cell-based, human
Source text: as §3

RARα = target: T2, RARα (Homo sapiens, UniProt P10276); assay: Binding to baculovirus-expressed RARα; set-up: made in house; conditions: baculovirus-expressed receptor
T2 sequence (P10276 1-462): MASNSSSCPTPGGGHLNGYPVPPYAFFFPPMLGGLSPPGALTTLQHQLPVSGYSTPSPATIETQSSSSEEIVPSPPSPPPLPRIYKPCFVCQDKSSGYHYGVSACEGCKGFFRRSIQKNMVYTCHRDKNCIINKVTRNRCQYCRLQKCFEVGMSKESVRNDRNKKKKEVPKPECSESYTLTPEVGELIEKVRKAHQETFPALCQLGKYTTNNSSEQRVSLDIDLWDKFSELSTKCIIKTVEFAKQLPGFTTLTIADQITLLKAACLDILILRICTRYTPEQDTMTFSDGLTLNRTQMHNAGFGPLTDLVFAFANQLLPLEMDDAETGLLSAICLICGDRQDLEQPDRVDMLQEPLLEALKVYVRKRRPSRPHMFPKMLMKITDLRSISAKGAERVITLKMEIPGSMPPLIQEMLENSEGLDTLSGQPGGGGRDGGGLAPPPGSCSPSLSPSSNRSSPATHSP
Source text: as §3

CCc1ccc(C2=CC(C)(C)Sc3ccc(C#Cc4ccc(C(=O)O)cc4)cc32)cc1 [AGN194310]
percentage of mature cells (HL60 cells): 5%
IC50 (PC3 ITS+ cells): 18 nM
colony formation (% of control) ([1]; 100 nM, ITS+-grown cells, all three cell lines): 3-7%
fold more potent than ATRA ([1]; against cell lines, serum-free): 12–22 fold
IC50 ([1]; stated over all three serum-free grown lines, read-out: concentration inhibiting colony formation by 50% (IC50)): 16 to 34 nM
cell growth of primary lines [2]: substan- tial growth inhibition
IC50 (DU145 ITS+ cells): 34 nM
Kd (RARβ): 2 nM
growth inhibitory effect in combination with TTNPB (LNCaP ITS+ cells; 50 nM AGN194310 together with 100 nM TTNPB): almost complete reversal
colony formation (% of control values) (LNCaP ITS+ cells; 50 nM alone (Figure 3)): 41%
colony formation (% of control values) (LNCaP ITS+ cells; 100 nM AGN194310 together with 100 nM TTNPB): 40%
colony formation (% of control values) (LNCaP ITS+ cells; 100 nM alone (Figure 3)): 14%
colony formation (% of control) (LNCaP ITS+ cells; 100 nM, ITS+ cells plated in ITS+ medium (Figure 5A)): < 1%
growth inhibitory activity in LNCaP-conditioned medium (LNCaP ITS+ cells; 100 nM, LNCaP ITS+ cells plated in LNCaP-conditioned medium): abrogated
inhibition of colony formation (LNCaP ITS+ cells; 100 nM, with EGF at 1, 10 and 20 ng/ml): > 95%
IC50 (LNCaP ITS+ cells; LNCaP, serum-free (ITS+), 14 days): 16 nM
concentration required to attain maximum growth inhibition (LNCaP ITS+ cells; colony assay): 100 nM
Kd (RARα): 3 nM
